Earlier results in patent publication US12678540B2, “Chimeric peptide-modified SIS membrane, preparation method therefor and application thereof” (Beijing Biosis Healing Biological Technology Co., Ltd., priority 2021, dated 2026).

System: fibroblasts, epithelial cells and endothelial cells

Substance: Hst1: member of the histatins (HSTs); sequence SHREFPFYGDYGS contains minimal elements to promote cell migration
- migration or adhesion of fibroblasts, epithelial cells and endothelial cells: promote the migration or adhesion
